Measurements: ChEMBL document CHEMBL5375992, “Design and Development of IKZF2 and CK1α Dual Degraders” (J Med Chem, 2023)
Values after ≈ are worked out from the molar mass of the structure shown. Active and inactive are the calls of the source. The rule behind the calls is not given here.

How the values were obtained:
OCI-Ly3 [1] = test: Upregulation of Bax transcript level in human OCILY3 cells at 1 uM incubated for 24 hrs by RT-qPCR analysis; type: functional, cell-based
OCI-Ly3 [2] = test: Upregulation of MDM2 protein expression in human OCILY3 cells at […] incubated for 24 hrs by Western blot analysis; type: functional, cell-based
[3] = target: Cereblon/Ikaros (Homo sapiens) (UniProt Q96SW2+Q13422); test: Protac activity at CRBN/IKZF1 (unknown origin) transfected in HEK293T cells at 100 nM incubated for 24 hrs by flow cytometry analysis relative to control; type: cell-based
[4] = target: T1, Protein cereblon/Zinc finger protein Helios (Homo sapiens) (UniProt Q96SW2+Q9UKS7); test: Protac activity at CRBN/IKZF2 (unknown origin) transfected in HEK293T cells at 100 nM incubated for 24 hrs by flow cytometry analysis relative to control; type: cell-based
[5] = target: T2, Cereblon/Casein kinase I alpha (Homo sapiens) (UniProt P48729+Q96SW2); test: Protac activity at CRBN/CK1alpha (unknown origin) transfected in HEK293T cells at 100 nM incubated for 24 hrs by flow cytometry analysis relative to control; type: cell-based
[6] = target: T3, Protein cereblon/Eukaryotic peptide chain release factor GTP-binding subunit ERF3A (Homo sapiens) (UniProt Q96SW2+P15170); test: Protac activity at CRBN/GSPT1 (unknown origin) transfected in HEK293T cells at 100 nM incubated for 24 hrs by flow cytometry analysis relative to control; type: cell-based
[7] = Solubility of compound in DMSO; type: physicochemical; conditions: DMSO; read-out: solubility
[8] = target: T2, Cereblon/Casein kinase I alpha (Homo sapiens); test: Protac activity at CRBN/CK1alpha in human MOLM-13 cells at 50 nM incubated for 2 hrs by proteomic analysis; type: cell-based
A2780 [9] = test: Cytotoxicity against human A2780 cells incubated for 5 days by MTT assay; type: functional, cell-based; conditions: A2780, 120 h
OCI-Ly3 [10] = test: Cytotoxicity against human OCILY3 cells incubated for 5 days by MTT assay; type: functional, cell-based; conditions: OCI-Ly3, 120 h
[11] = target: T2, Cereblon/Casein kinase I alpha (Homo sapiens); test: Protac activity at CRBN/CK1alpha in human A2780 cells assessed as relative ratio at 1 nM incubated for 24 hrs by Western blotting analysis relative to DMSO; type: cell-based
[12] = target: T2, Cereblon/Casein kinase I alpha (Homo sapiens); test: Protac activity at CRBN/CK1alpha in human A2780 cells assessed as relative ratio at 10 nM incubated for 24 hrs by Western blotting analysis relative to DMSO; type: cell-based
[13] = target: T2, Cereblon/Casein kinase I alpha (Homo sapiens); test: Protac activity at CRBN/CK1alpha in human A2780 cells assessed as relative ratio at 100 nM incubated for 24 hrs by Western blotting analysis relative to DMSO; type: cell-based
[14] = target: T2, Cereblon/Casein kinase I alpha (Homo sapiens); test: Protac activity at CRBN/CK1alpha in human A2780 cells assessed as relative ratio at 1 uM incubated for 24 hrs by Western blotting analysis relative to DMSO; type: cell-based
[15] = target: T2, Cereblon/Casein kinase I alpha (Homo sapiens); test: Protac activity at CRBN/CK1alpha in human A2780 cells assessed as relative ratio at 10 uM incubated for 24 hrs by Western blotting analysis relative to DMSO; type: cell-based
[16] = target: T3, Protein cereblon/Eukaryotic peptide chain release factor GTP-binding subunit ERF3A (Homo sapiens); test: Protac activity at CRBN/GSPT1 in human A2780 cells assessed as relative ratio at 1 nM incubated for 24 hrs by Western blotting analysis relative to DMSO; type: cell-based
[17] = target: T3, Protein cereblon/Eukaryotic peptide chain release factor GTP-binding subunit ERF3A (Homo sapiens); test: Protac activity at CRBN/GSPT1 in human A2780 cells assessed as relative ratio at 10 nM incubated for 24 hrs by Western blotting analysis relative to DMSO; type: cell-based
[18] = target: T3, Protein cereblon/Eukaryotic peptide chain release factor GTP-binding subunit ERF3A (Homo sapiens); test: Protac activity at CRBN/GSPT1 in human A2780 cells assessed as relative ratio at 100 nM incubated for 24 hrs by Western blotting analysis relative to DMSO; type: cell-based
[19] = target: T3, Protein cereblon/Eukaryotic peptide chain release factor GTP-binding subunit ERF3A (Homo sapiens); test: Protac activity at CRBN/GSPT1 in human A2780 cells assessed as relative ratio at 1 uM incubated for 24 hrs by Western blotting analysis relative to DMSO; type: cell-based
[20] = target: T3, Protein cereblon/Eukaryotic peptide chain release factor GTP-binding subunit ERF3A (Homo sapiens); test: Protac activity at CRBN/GSPT1 in human A2780 cells assessed as relative ratio at 10 uM incubated for 24 hrs by Western blotting analysis relative to DMSO; type: cell-based
[21] = target: T2, Cereblon/Casein kinase I alpha (Homo sapiens); test: Protac activity at CRBN/CK1alpha in human OCILY3 cells assessed as relative ratio at 1 nM incubated for 24 hrs by Western blotting analysis relative to DMSO; type: cell-based
[22] = target: T2, Cereblon/Casein kinase I alpha (Homo sapiens); test: Protac activity at CRBN/CK1alpha in human OCILY3 cells assessed as relative ratio at 10 nM incubated for 24 hrs by Western blotting analysis relative to DMSO; type: cell-based
[23] = target: T2, Cereblon/Casein kinase I alpha (Homo sapiens); test: Protac activity at CRBN/CK1alpha in human OCILY3 cells assessed as relative ratio at 100 nM incubated for 24 hrs by Western blotting analysis relative to DMSO; type: cell-based
[24] = target: T2, Cereblon/Casein kinase I alpha (Homo sapiens); test: Protac activity at CRBN/CK1alpha in human OCILY3 cells assessed as relative ratio at 1 uM incubated for 24 hrs by Western blotting analysis relative to DMSO; type: cell-based
[25] = target: T2, Cereblon/Casein kinase I alpha (Homo sapiens); test: Protac activity at CRBN/CK1alpha in human OCILY3 cells assessed as relative ratio at 10 uM incubated for 24 hrs by Western blotting analysis relative to DMSO; type: cell-based
[26] = target: T3, Protein cereblon/Eukaryotic peptide chain release factor GTP-binding subunit ERF3A (Homo sapiens); test: Protac activity at CRBN/GSPT1 in human OCILY3 cells assessed as relative ratio at 1 nM incubated for 24 hrs by Western blotting analysis relative to DMSO; type: cell-based
[27] = target: T3, Protein cereblon/Eukaryotic peptide chain release factor GTP-binding subunit ERF3A (Homo sapiens); test: Protac activity at CRBN/GSPT1 in human OCILY3 cells assessed as relative ratio at 10 nM incubated for 24 hrs by Western blotting analysis relative to DMSO; type: cell-based
[28] = target: T3, Protein cereblon/Eukaryotic peptide chain release factor GTP-binding subunit ERF3A (Homo sapiens); test: Protac activity at CRBN/GSPT1 in human OCILY3 cells assessed as relative ratio at 100 nM incubated for 24 hrs by Western blotting analysis relative to DMSO; type: cell-based
[29] = target: T3, Protein cereblon/Eukaryotic peptide chain release factor GTP-binding subunit ERF3A (Homo sapiens); test: Protac activity at CRBN/GSPT1 in human OCILY3 cells assessed as relative ratio at 1 uM incubated for 24 hrs by Western blotting analysis relative to DMSO; type: cell-based
[30] = target: T3, Protein cereblon/Eukaryotic peptide chain release factor GTP-binding subunit ERF3A (Homo sapiens); test: Protac activity at CRBN/GSPT1 in human OCILY3 cells assessed as relative ratio at 10 uM incubated for 24 hrs by Western blotting analysis relative to DMSO; type: cell-based
[31] = target: T1, Protein cereblon/Zinc finger protein Helios (Homo sapiens); test: Protac activity at CRBN/IKZF2 in human A2780 cells assessed as relative ratio at 1 nM incubated for 24 hrs by Western blotting analysis relative to DMSO; type: cell-based
[32] = target: T1, Protein cereblon/Zinc finger protein Helios (Homo sapiens); test: Protac activity at CRBN/IKZF2 in human A2780 cells assessed as relative ratio at 10 nM incubated for 24 hrs by Western blotting analysis relative to DMSO; type: cell-based
[33] = target: T1, Protein cereblon/Zinc finger protein Helios (Homo sapiens); test: Protac activity at CRBN/IKZF2 in human A2780 cells assessed as relative ratio at 100 nM incubated for 24 hrs by Western blotting analysis relative to DMSO; type: cell-based
[34] = target: T1, Protein cereblon/Zinc finger protein Helios (Homo sapiens); test: Protac activity at CRBN/IKZF2 in human A2780 cells assessed as relative ratio at 1 uM incubated for 24 hrs by Western blotting analysis relative to DMSO; type: cell-based
[35] = target: T1, Protein cereblon/Zinc finger protein Helios (Homo sapiens); test: Protac activity at CRBN/IKZF2 in human A2780 cells assessed as relative ratio at 10 uM incubated for 24 hrs by Western blotting analysis relative to DMSO; type: cell-based
A2780 [36] = test: Upregulation of Bax transcript level in human A2780 cells at 1 uM incubated for 24 hrs by RT-qPCR analysis; type: functional, cell-based
A2780 [37] = test: Upregulation of p21 transcript level in human A2780 cells at 1 uM incubated for 24 hrs by RT-qPCR analysis; type: functional, cell-based
OCI-Ly3 [38] = test: Upregulation of p21 transcript level in human OCILY3 cells at 1 uM incubated for 24 hrs by RT-qPCR analysis; type: functional, cell-based
OCI-Ly3 [39] = test: Upregulation of p21 protein expression in human OCILY3 cells at […] incubated for 24 hrs by Western blot analysis; type: functional, cell-based
OCI-Ly3 [40] = test: Upregulation of p53 protein expression in human OCILY3 cells at […] incubated for 24 hrs by Western blot analysis; type: functional, cell-based
OCI-Ly3 [41] = test: Upregulation of Bax protein expression in human OCILY3 cells at […] incubated for 24 hrs by Western blot analysis; type: functional, cell-based
A2780 [42] = test: Upregulation of MDM2 protein expression in human A2780 cells at […] incubated for 24 hrs by Western blot analysis; type: functional, cell-based
A2780 [43] = test: Upregulation of p21 protein expression in human A2780 cells at […] incubated for 24 hrs by Western blot analysis; type: functional, cell-based
A2780 [44] = test: Upregulation of p53 protein expression in human A2780 cells at […] incubated for 24 hrs by Western blot analysis; type: functional, cell-based
A2780 [45] = test: Upregulation of Bax protein expression in human A2780 cells at […] incubated for 24 hrs by Western blot analysis; type: functional, cell-based
[46] = target: T3, Protein cereblon/Eukaryotic peptide chain release factor GTP-binding subunit ERF3A (Homo sapiens); test: Protac activity at CRBN/GSPT1 in human NCI-H1048 cells at 10 to 100 nM incubated for 24 hrs by Western blotting analysis; type: cell-based; conditions: dose 10-100 nM

T3 sequence (P15170 whole entry, looked up): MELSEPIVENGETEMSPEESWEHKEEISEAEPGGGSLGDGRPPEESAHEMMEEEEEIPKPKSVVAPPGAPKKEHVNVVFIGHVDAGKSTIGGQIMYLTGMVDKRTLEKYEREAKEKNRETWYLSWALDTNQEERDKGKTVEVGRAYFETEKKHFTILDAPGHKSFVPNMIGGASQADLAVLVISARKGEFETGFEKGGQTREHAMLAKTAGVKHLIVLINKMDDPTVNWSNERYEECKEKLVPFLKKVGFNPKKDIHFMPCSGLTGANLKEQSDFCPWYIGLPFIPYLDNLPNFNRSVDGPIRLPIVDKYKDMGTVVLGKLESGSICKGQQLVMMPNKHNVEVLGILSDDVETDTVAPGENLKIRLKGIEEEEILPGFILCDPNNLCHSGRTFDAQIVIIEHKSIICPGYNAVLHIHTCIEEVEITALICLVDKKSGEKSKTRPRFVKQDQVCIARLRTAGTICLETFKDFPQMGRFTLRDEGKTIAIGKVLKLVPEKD
T3 sequence (Q96SW2 whole entry, looked up): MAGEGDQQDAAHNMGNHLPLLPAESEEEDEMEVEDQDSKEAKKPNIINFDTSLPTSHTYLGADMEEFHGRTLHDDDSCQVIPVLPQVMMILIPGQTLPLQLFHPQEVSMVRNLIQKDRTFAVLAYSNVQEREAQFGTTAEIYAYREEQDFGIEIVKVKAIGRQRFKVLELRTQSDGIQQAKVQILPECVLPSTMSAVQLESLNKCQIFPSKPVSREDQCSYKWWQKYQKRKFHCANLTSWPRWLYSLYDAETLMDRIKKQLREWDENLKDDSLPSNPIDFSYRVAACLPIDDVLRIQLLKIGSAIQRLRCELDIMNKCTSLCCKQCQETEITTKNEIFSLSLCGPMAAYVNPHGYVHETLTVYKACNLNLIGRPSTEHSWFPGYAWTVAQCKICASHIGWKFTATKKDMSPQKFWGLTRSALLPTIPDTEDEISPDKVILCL
T1 sequence (Q96SW2 whole entry, looked up): as above
T1 sequence (Q9UKS7 whole entry, looked up): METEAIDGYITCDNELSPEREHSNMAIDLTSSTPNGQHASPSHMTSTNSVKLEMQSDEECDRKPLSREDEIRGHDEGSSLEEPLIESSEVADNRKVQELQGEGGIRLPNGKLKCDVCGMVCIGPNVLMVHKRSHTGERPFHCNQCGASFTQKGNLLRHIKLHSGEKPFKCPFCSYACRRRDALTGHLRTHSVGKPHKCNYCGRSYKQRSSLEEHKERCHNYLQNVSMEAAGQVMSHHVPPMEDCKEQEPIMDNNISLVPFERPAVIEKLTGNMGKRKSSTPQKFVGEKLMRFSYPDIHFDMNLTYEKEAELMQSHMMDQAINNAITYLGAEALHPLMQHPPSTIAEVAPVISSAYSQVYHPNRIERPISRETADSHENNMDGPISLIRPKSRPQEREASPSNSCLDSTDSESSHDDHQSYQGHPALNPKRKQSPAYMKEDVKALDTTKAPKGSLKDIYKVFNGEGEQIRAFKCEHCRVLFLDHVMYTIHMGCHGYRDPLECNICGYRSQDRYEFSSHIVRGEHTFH
T2 sequence (P48729 2-337 limits assumed): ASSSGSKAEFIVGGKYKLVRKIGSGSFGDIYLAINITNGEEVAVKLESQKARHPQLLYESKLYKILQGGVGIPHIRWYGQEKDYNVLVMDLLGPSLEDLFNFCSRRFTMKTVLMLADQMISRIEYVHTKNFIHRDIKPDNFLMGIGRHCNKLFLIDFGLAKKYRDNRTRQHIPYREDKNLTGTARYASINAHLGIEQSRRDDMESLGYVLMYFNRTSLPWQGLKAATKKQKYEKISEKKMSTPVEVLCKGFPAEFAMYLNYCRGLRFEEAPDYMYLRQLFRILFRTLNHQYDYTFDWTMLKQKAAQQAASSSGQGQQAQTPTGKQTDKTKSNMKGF
T2 sequence (Q96SW2 whole entry partner): as the sequence (Q96SW2 whole entry, looked up) above

- Activity [3]: 11%
- Activity [4]: 82%
- Activity [5]: 80%
- Activity [6]: 4%
- solubility [7]: 50 mM (≈ 22.4 mg/mL)
- Activity [8]: Active
- Ratio [11]: 0.5
- Ratio [12]: 0.22
- Ratio [13]: 0.18
- Ratio [14]: 0.17
- Ratio [15]: 0.17
- Ratio [16]: 0.96
- Ratio [17]: 0.9
- Ratio [18]: 0.9
- Ratio [19]: 1
- Ratio [20]: 1
- Ratio [21]: 0.63
- Ratio [22]: 0.28
- Ratio [23]: 0.25
- Ratio [24]: 0.26
- Ratio [25]: 0.27
- Ratio [26]: 0.83
- Ratio [27]: 0.67
- Ratio [28]: 0.65
- Ratio [29]: 0.73
- Ratio [30]: 0.8
- Ratio [31]: 1
- Ratio [32]: 0.77
- Ratio [33]: 0.24
- Ratio [34]: 0.08
- Ratio [35]: 0.06
- Activity [46]: inactive
Compound: COc1cccc2c1OCC(C(=O)Nc1ccc3c(c1)CN(C1CCC(=O)NC1=O)C3=O)=C2 (stereo unspecified)
- Activity (OCI-Ly3 [1]): Active
- Activity (OCI-Ly3 [2]): Active
- EC50 (A2780 [9]): 27 nM
- EC50 (OCI-Ly3 [10]): 14 nM
- Activity (A2780 [36]): Active
- Activity (A2780 [37]): Active
- Activity (OCI-Ly3 [38]): Active
- Activity (OCI-Ly3 [39]): Active
- Activity (OCI-Ly3 [40]): Active
- Activity (OCI-Ly3 [41]): Active
- Activity (A2780 [42]): Active
- Activity (A2780 [43]): Active
- Activity (A2780 [44]): Active
- Activity (A2780 [45]): Active
